Measurements from the NIST ThermoML archive (doi:10.1021/je049544x).
Numbers after ± are expanded uncertainties.

Assays:
[1] = Liquid
[2] = refractive index (Na D-line) (dimensionless); settings: 298.15 K; 101.33 kPa; Liquid; Standard Abbe refractometry
[3] = xn = mol fraction of the nth substance listed; settings: 298.15 K, 101.3 kPa, Liquid; for speed of sound: Sing-around technique in a fixed-path interferometer
[4] = refractive index (Na D-line) (dimensionless); xn = mol fraction of the nth substance listed; settings: 298.15 K, 101.3 kPa, Liquid, Standard Abbe refractometry

CO [methanol]
Settings	mass density [kg/m3]
[1], 298.15 K, 101.3 kPa	786.56 ± 0.6

Settings	speed of sound [m/s]
[1], 298.15 K, 101.3 kPa, Sing-around technique in a fixed-path interferometer	1101.8 ± 1.2

Settings	vapor or sublimation pressure [kPa]
[1], 337.9 K	101.3 ± 0.3

Settings	refractive index
[2]	1.32634 ± 0.00072

C=COC(C)=O [vinyl acetate] + CCOC(=O)OCC
Settings	mass density, [3] [kg/m3]	refractive index, [4]	speed of sound, [3] [m/s]
x1 = 0.043	967.68 ± 0.25	1.3826 ± 0.00072	1174.2 ± 1.2
x1 = 0.105	965.65 ± 0.26	1.3832 ± 0.00072	1171.2 ± 1.2
x1 = 0.17	963.45 ± 0.26	1.38373 ± 0.00072	1167.9 ± 1.2
x1 = 0.193	962.74 ± 0.27	1.38396 ± 0.00072	1166.9 ± 1.2
x1 = 0.254	960.55 ± 0.27	1.38458 ± 0.00072	1163.6 ± 1.2
x1 = 0.299	958.92 ± 0.28	1.385 ± 0.00072	1161.2 ± 1.2
x1 = 0.353	956.87 ± 0.28	1.3855 ± 0.00072	1158.2 ± 1.2
x1 = 0.407	954.79 ± 0.29	1.38602 ± 0.00072	1155.2 ± 1.2
x1 = 0.458	952.74 ± 0.3	1.38655 ± 0.00072	1152.3 ± 1.2
x1 = 0.507	950.71 ± 0.3	1.38706 ± 0.00072	1149.3 ± 1.2
x1 = 0.556	948.6 ± 0.31	1.38757 ± 0.00072	1146.4 ± 1.2
x1 = 0.598	946.73 ± 0.31	1.38804 ± 0.00072	1143.7 ± 1.2
x1 = 0.65	944.3 ± 0.32	1.38859 ± 0.00072	1140.4 ± 1.2
x1 = 0.697	942.05 ± 0.32	1.38917 ± 0.00072	1137.2 ± 1.2
x1 = 0.744	939.73 ± 0.33	1.38968 ± 0.00072	1134.1 ± 1.2
x1 = 0.803	936.72 ± 0.34	1.39031 ± 0.00072	1130.1 ± 1.2
x1 = 0.85	934.22 ± 0.34	1.39087 ± 0.00072	1126.7 ± 1.2
x1 = 0.901	931.44 ± 0.35	1.39143 ± 0.00073	1123.1 ± 1.2
x1 = 0.946	928.87 ± 0.36	1.39197 ± 0.00073	1119.8 ± 1.2
x1 = 1	925.59 ± 0.37	1.39253 ± 0.00073	1115.6 ± 1.2

CCOC(=O)OCC [diethyl carbonate] + C=COC(C)=O
x2 = 0
Settings	mass density [kg/m3]	refractive index	speed of sound [m/s]
[3]	969 ± 0.25	–	1176.1 ± 1.2
[4]	–	1.38221 ± 0.00072	–
